# Experimental data published in PMC9735679, “Identification and Evolution of a Natural Tetr Protein Based on Molecular Docking and Development of a Fluorescence Polari-Zation Assay for Multi-Detection of 10 Tetracyclines in Milk” (Foods, 2022).
# pIC50, pKd: −log10 of the molar value. Read-outs that look alike come from different tables or passages of the source.
# Tests used:
# Type in all cases: binding
# natural TetR [1] = target: T1, natural TetR (Escherichia coli, UniProt P04483); assay: Surface plasmon resonance affinity, natural TetR; settings: for pKd: KD (equilibrium dissociation constant, Kd/Ka); for pKd / koff (dissociation rate constant): SPR
# T1 construct: made in house
# Experimental: (§1) After the experiments, the association constant (Ka), the dissociation constant (Kd), and the equilibrium dissociation constant (KD = Kd/Ka) for each drug were calculated. For convenience in comparing their affinities, the absolute affinity constant (KA = […]) for each drug was also calculated.
# TetR mutant [2] = target: T2, TetR mutant (Escherichia coli, UniProt P04483, H139W); assay: Fluorescence polarization assay (FPA) with TetR mutant; settings: for LOD (limit of detection, IC10) / inhibition ratio (1-FP/FP0) / FP values at 0 and 100 ng/mL: TetR mutant; for LOD (limit of detection, IC10): FPA, FA-MC tracer, drugs diluted with blank milk extract; for inhibition ratio (1-FP/FP0): 100 ng/mL; for FP values at 0 and 100 ng/mL: either tracer (FITC-MC or FA-MC), specificity test
# T2 construct: made in house; host or cells: E. coli Rosetta-gami(BL21), vector pET28a
# Experimental: (§2) The FPA method was performed as follows. A total of 50 μL mutant, 50 μL TCs solution, and 50 μL fluorescent tracer were added into the wells of a 96-well microplate (in triplicate) and incubated for 2 min. Then the fluorescence polarization (FP) value of each well was recorded (λex 485 nm, λem 528 nm, emission cutoff of 515 nm). During the experiments, the two fluorescent tracers were compared, and several other parameters were optimized, including tracer concentration, mutant concentration, Mg^2+ concentration and incubation time. The 10 TCs and several other classes of drugs were all tested by this method. The competitive curve was developed by plotting the FP/FP0 values (the fluorescence polarization value at each concentration divided by that of zero concentration) versus the concentrations of the TCs (log C). Based on the developed competitive curve, the half of inhibition (IC50) and the limit of detection (IC10) for each drug were determined, respectively.
# For obtaining the best method performance, several parameters were optimized with DMC as the representative. Firstly, the concentrations of FA-MC and the mutant were optimized. During the experiments, the FA-MC and the mutant at different concentrations were mixed with the same concentration of DMC to perform the assay. […] Secondly, the concentration of Mg^2+ (MgCl2) was optimized. […] Thirdly, the competition time was optimized.
# (§3) This is the first study reporting an FPA method for the determination of TCs. Under the optimal conditions, the 10 TCs were diluted with the extracts of a blank milk sample to be analyzed, respectively. […] During the experiments, the natural TetR was also used to perform the FPA method as described above.
# TetR mutant [3] = target: T2, TetR mutant; assay: Surface plasmon resonance affinity, TetR mutant; settings: SPR; for pKd: KD (equilibrium dissociation constant, Kd/Ka)
# Experimental: as §1
# The primers were designed according to the virtual model: mutant for, […]; mutant rev, […]. The amplified gene was inserted into pET28a to construct the express vector that was transformed into E. coli Rosetta-gami(BL21) to express the mutant, and these procedures were according to our recent report. The obtained TetR mutant was characterized by using SDS-PAGE and western blotting according to our recent report, and its recognition ability for the 10 TCs was evaluated by the following FPA method. Furthermore, its recognition mechanisms and affinities for the 10 TCs were also determined as described above.
# natural TetR [4] = target: T1, natural TetR; assay: Fluorescence polarization assay (FPA) with natural TetR
# Experimental: as §2, §3
# [5] = read-out: Ka (association constant), TetR without Mg2+, SPR
# [6] = read-out: Ka (association constant), TetR+Mg2+, SPR
SMILES,pKd (natural TetR [1]; TetR without Mg2+),pKd (natural TetR [1]; TetR+Mg2+),koff (dissociation rate constant) (natural TetR [1]; TetR without Mg2+) [s⁻¹],koff (dissociation rate constant) (natural TetR [1]; TetR+Mg2+) [s⁻¹],kon (natural TetR [1]; [5]) [M⁻¹ s⁻¹],kon (natural TetR [1]; [6]) [M⁻¹ s⁻¹],pIC50 (TetR mutant [2]),"LOD (limit of detection, IC10) (TetR mutant [2]) [ng/mL]",pKd (TetR mutant [3]; TetR mutant without Mg2+),pKd (TetR mutant [3]; TetR mutant+Mg2+),Dissociation rate constant (koff) (TetR mutant [3]; TetR mutant without Mg2+) [s⁻¹],Dissociation rate constant (koff) (TetR mutant [3]; TetR mutant+Mg2+) [s⁻¹],pIC50 (natural TetR [4]),inhibition ratio (1-FP/FP0) (TetR mutant [2]; tracer FA-MC) [%],inhibition ratio (1-FP/FP0) (TetR mutant [2]; tracer FITC-MC) [%],FP values at 0 and 100 ng/mL (TetR mutant [2])
"CN(C)[C@@H]1C(O)=C(C(N)=O)C(=O)[C@@]2(O)C(O)=C3C(=O)c4c(O)ccc(Cl)c4[C@@](C)(O)[C@H]3C[C@@H]12 [CTC, chlortetracycline]",5.30,5.59,0.0148,0.0113,2970,4430,6.94,1.4,7.79,8.04,0.000822,0.000404,6.78,–,–,–
"C[C@H]1c2cccc(O)c2C(=O)C2=C(O)[C@]3(O)C(=O)C(C(N)=O)=C(O)[C@@H](N(C)C)[C@@H]3[C@@H](O)[C@@H]21 [DC, doxycycline]",7.68,7.39,0.00113,0.0018,53400,43900,7.17,1.0,9.60,9.19,6.65e-05,0.000113,7.08,–,–,–
"CN(C)[C@@H]1C(O)=C(C(N)=O)C(=O)[C@@]2(O)C(O)=C3C(=O)c4c(O)ccc(Cl)c4[C@@H](O)[C@H]3C[C@@H]12 [DMC, demeclocycline]",7.13,7.56,0.000206,0.000127,2770,4610,7.48,0.4,8.51,10.03,1.72e-05,4.7e-06,7.18,69,52,–
"CN(C)[C@@H]1C(O)=C(C(=O)NCNCCCC[C@H](N)C(=O)O)C(=O)[C@@]2(O)C(O)=C3C(=O)c4c(O)cccc4[C@@](C)(O)[C@H]3C[C@@H]12 [LMC, Lymecycline]",6.44,6.58,0.00116,0.00121,3170,4590,7.12,1.0,8.60,8.96,7.25e-05,0.00011,7.03,–,–,–
"CN(C)c1ccc(O)c2c1C[C@H]1C[C@H]3[C@H](N(C)C)C(O)=C(C(N)=O)C(=O)[C@@]3(O)C(O)=C1C2=O [MC, minocycline]",6.95,7.15,0.000507,0.000511,4540,7270,7.28,0.5,8.51,9.72,4.23e-05,3.19e-05,7.02,–,–,–
"C=C1c2cccc(O)c2C(=O)C2=C(O)[C@]3(O)C(=O)C(C(N)=O)=C(O)[C@@H](N(C)C)[C@@H]3[C@@H](O)[C@H]12 [MTC, Methacycline]",6.95,6.91,0.00016,0.000162,1440,1330,6.96,1.5,8.40,9.52,5.71e-06,5.59e-06,6.94,–,–,–
"CN(C)[C@@H]1C(O)=C(C(N)=O)C(=O)[C@@]2(O)C(O)=C3C(=O)c4c(O)cccc4[C@@](C)(O)[C@H]3[C@H](O)[C@@H]12 [OTC, oxytetracycline]",6.02,6.39,0.00199,0.00144,2060,3520,7.11,0.8,8.75,8.83,7.96e-05,0.00012,6.89,–,–,–
"CN(C)[C@@H]1C(O)=C(C(N)=O)C(=O)[C@@]2(O)C(O)=C3C(=O)c4c(O)cccc4C[C@H]3C[C@@H]12 [SC, Sancycline]",7.23,7.15,0.000127,0.000162,2140,2310,7.16,0.7,9.23,9.38,6.35e-06,5.79e-06,6.98,–,–,–
"CN(C)[C@@H]1C(O)=C(C(N)=O)C(=O)[C@@]2(O)C(O)=C3C(=O)c4c(O)cccc4[C@@](C)(O)[C@H]3C[C@@H]12 [TC, tetracycline]",5.11,5.32,0.00156,0.00133,203,278,7.07,1.3,6.11,7.21,0.000156,0.000121,6.84,–,–,–
"CN(C)c1cc(NC(=O)CNC(C)(C)C)c(O)c2c1C[C@H]1C[C@H]3[C@H](N(C)C)C(O)=C(C(N)=O)C(=O)[C@@]3(O)C(O)=C1C2=O [TIC, tigecycline]",7.98,7.55,1.04e-05,1.78e-05,1010,633,7.56,0.4,9.98,9.98,9.45e-07,1.78e-06,7.28,–,–,–
CN(C)CCCN1c2ccccc2Sc2ccc(Cl)cc21 [chlorpromazine],–,–,–,–,–,–,–,–,–,–,–,–,–,–,–,comparably high
O=C(O)c1cn(C2CC2)c2cc(N3CCNCC3)c(F)cc2c1=O [ciprofloxacin],–,–,–,–,–,–,–,–,–,–,–,–,–,–,–,comparably high
CN1C(=O)CN=C(c2ccccc2)c2cc(Cl)ccc21 [diazepam],–,–,–,–,–,–,–,–,–,–,–,–,–,–,–,comparably high
[H]/N=C(/N)N[C@H]1[C@H](O)[C@@H](O)[C@H](O[C@@H]2O[C@@H](C)[C@](O)(C=O)[C@H]2O[C@@H]2O[C@@H](CO)[C@H](O)[C@@H](O)[C@@H]2NC)[C@@H](N/C(N)=N\[H])[C@@H]1O [streptomycin],–,–,–,–,–,–,–,–,–,–,–,–,–,–,–,comparably high
